Results published in patent US12331040B2 (Karyopharm Therapeutics Inc., priority 2013, dated 2025).
Where two headings read alike, the source gives them in different places.

Columns and labels:
Assay in all cases: MTT cell proliferation assay
Format in all cases: cell-based
[1] = test system: 3T3 cells; conditions: Mus musculus, NIH3T3, approximately 64-72 hours incubation
Description: (§1) The MTT cell proliferation assay was used to study the cytotoxic properties of the compounds. The assay was performed according to the method described by Roche Molecular Biochemicals, with minor modifications. The assay is based on the cleavage of the tetrazolium salt, MTT, in the presence of an electron-coupling reagent. The water-insoluble formazan salt produced must be solubilized in an additional step. Cells grown in a 96-well tissue culture plate were incubated with the MTT solution for approximately 4 hours. After this incubation period, a water-insoluble formazan dye formed. After solubilization, the formazan dye was quantitated using a scanning multi-well spectrophotometer (ELISA reader). […] The cells were seeded at 5,000-10,000 cells in each well of 96-well plate in 100 μL of fresh culture medium and were allowed to attach overnight. The stock solutions of the compounds were diluted in 100 μL cell culture medium to obtain eight concentrations of each test compound, ranging from 1 nM to 30 μM. […] All optical densities were measured at 490 nm using a Vmax Kinetic Microplate Reader (Molecular Devices). In most cases, the assay was performed in duplicate and the results were presented as a mean percent inhibition to the negative control±SE. The following formula was used to calculate the percent of inhibition: Inhibition (%)=(1−(ODo/OD))×100.
(§2) The compounds were tested against MS751, Z138 and 3T3 cells. The MS751 cell line is derived from a metastasis to lymph node of human cervix from a patient diagnosed with squamous cell carcinoma of the cervix. The Z138 cell line is a mature B-cell acute lymphoblastic leukemia cell line derived from a patient with chronic lymphocytic leukemia. 3T3 cells are standard fibroblast cells; they were originally isolated from Swiss mouse embryo tissue.

[2] = test system: Z138 cells; conditions: Homo sapiens, Z-138, Z138 cells, approximately 64-72 hours incubation
Description: as §1, §2

[3] = test system: MS751 cells; conditions: Homo sapiens, MS751, MS751 cells, approximately 64-72 hours incubation
Description: as §1, §2

[4] = read-out: MTT Assay IC50 MS-751
[5] = read-out: MTT Assay IC50, Z-138
[6] = read-out: MTT Assay IC50, MS-751

| SMILES | IC50 ([1]; read-out: MTT Assay IC50 3T3) [µM] | IC50 ([2]; read-out: MTT Assay IC50 Z-138) [µM] | IC50 [3, 4] [µM] | IC50 ([1]; read-out: MTT Assay IC50, 3T3) [µM] | IC50 [2, 5] [µM] | IC50 [3, 6] [µM] |
| --- | --- | --- | --- | --- | --- | --- |
| Nc1ccc(/C=C/C(=O)NCc2cc3cc(-c4ncc(C(=O)N5CCC(F)(F)CC5)cn4)cc(C(F)(F)F)c3o2)cn1 [Compound 652, (E)-3-(6-aminopyridin-3-yl)-N-((5-(5-(4,4-difluoropiperidine-1-carbonyl)pyrimidin-2-yl)-7-(trifluoromethyl)benzofuran-2-yl)methyl)acrylamide] | > 10 | 0.1 to 5 | 0.1 to 5 |  |  |  |
| O=C(/C=C/c1cccnc1)NCc1cc2cc(-c3ccc(C(=O)N4CCC(F)(F)CC4)cn3)cc(-c3ccc(F)cc3)c2o1 [Compound 719, (E)-N-((5-(5-(4,4-difluoropiperidine-1-carbonyl)pyridin-2-yl)-7-(4-fluorophenyl)benzofuran-2-yl)methyl)-3-(pyridin-3-yl)acrylamide] |  |  |  | < 0.1 | < 0.1 | < 0.1 |
| Nc1ccc(/C=C/C(=O)NCc2cc3cc(-c4cc(C(=O)N5CCOCC5)c(F)cn4)cc(C(F)(F)F)c3o2)cn1 [Compound 580, (E)-3-(6-aminopyridin-3-yl)-N-((5-(5-fluoro-4-(morpholine-4-carbonyl)pyridin-2-yl)-7-(trifluoromethyl)benzofuran-2-yl)methyl)acrylamide] | 5 to 10 | < 0.1 | < 0.1 |  |  |  |
| Nc1ccc(/C=C/C(=O)NCc2cc3cc(-c4ccc(F)c(C(=O)N5CCOCC5)n4)cc(C(F)(F)F)c3o2)cn1 [Compound 579, (E)-3-(6-aminopyridin-3-yl)-N-((5-(5-fluoro-6-(morpholine-4-carbonyl)pyridin-2-yl)-7-(trifluoromethyl)benzofuran-2-yl)methyl)acrylamide] | > 10 | < 0.1 | < 0.1 |  |  |  |
| Nc1ccc(/C=C/C(=O)NCc2cc3cc(-c4ccc(C(=O)N5CCOCC5)cc4)cc(C(F)F)c3o2)cn1 [Compound 557, (E)-3-(6-aminopyridin-3-yl)-N-((7-(difluoromethyl)-5-(4-(morpholine-4-carbonyl)phenyl)benzofuran-2-yl)methyl)acrylamide] | > 10 | 0.1 to 5 | 0.1 to 5 |  |  |  |
| Nc1ccc(/C=C/C(=O)NCc2cc3cc(-c4ccc(C(=O)N5CCCCC5)cc4)cc(C(F)(F)F)c3o2)cn1 [Compound 595, (E)-3-(6-aminopyridin-3-yl)-N-((5-(4-(piperidine-1-carbonyl)phenyl)-7-(trifluoromethyl)benzofuran-2-yl)methyl)acrylamide] | > 10 | 0.1 to 5 | 0.1 to 5 |  |  |  |
| Nc1ccc(/C=C/C(=O)NCc2cc3cc(-c4ccc(C(=O)NCc5cccnc5)cn4)cc(C(F)(F)F)c3o2)cn1 [Compound 630, (E)-6-(2-((3-(6-aminopyridin-3-yl)acrylamido)methyl)-7-(trifluoromethyl)benzofuran-5-yl)-N-(pyridin-3-ylmethyl)nicotinamide] | 0.1 to 5 | < 0.1 | < 0.1 |  |  |  |
| Nc1ccc(/C=C/C(=O)NCc2cc3cc(-c4ccc(C(F)(F)F)cc4)cc(-c4ccc(F)cc4)c3o2)cn1 [Compound 692, (E)-3-(6-aminopyridin-3-yl)-N-((7-(4-fluorophenyl)-5-(4-(trifluoromethyl)phenyl)benzofuran-2-yl)methyl)acrylamide] |  |  |  | > 10 | 0.1 to 5 | 0.1 to 5 |
| Nc1ccc(/C=C/C(=O)NCCc2cc3cc(-c4ccc(C(=O)N5CCC(F)(F)CC5)cc4)cc(C(F)(F)F)c3o2)cn1 [Compound 691, (E)-3-(6-aminopyridin-3-yl)-N-(2-(5-(4-(4,4-difluoropiperidine-1-carbonyl)phenyl)-7-(trifluoromethyl)benzofuran-2-yl)ethyl)acrylamide] |  |  |  | 0.1 to 5 | < 0.1 | 0.1 to 5 |
| CN1Cc2cc(-c3cc(Cl)c4oc(CNC(=O)/C=C/c5ccc(N)nc5)cc4c3)ccc2C1=O [Compound 513, (E)-3-(6-aminopyridin-3-yl)-N-((7-chloro-5-(2-methyl-1-oxoisoindolin-5-yl)benzofuran-2-yl)methyl)acrylamide] | > 10 | 0.1 to 5 | > 10 |  |  |  |
| Nc1ccc(/C=C/C(=O)NCc2cc3cc(-c4ccc(C(=O)N5CCOCC5)cc4)cc(Cl)c3o2)cc1 [Compound 550, (E)-3-(4-Aminophenyl)-N-((7-chloro-5-(4-(morpholine-4-carbonyl)phenyl)benzofuran-2-yl)methyl)acrylamide] | > 10 | > 10 | > 10 |  |  |  |
| [2H]C([2H])([2H])Oc1cc(-c2ccc(C(=O)N3CCC(F)(F)CC3)cn2)cc2cc(CNC(=O)/C=C/c3ccc(N)nc3)oc12 [Compound 660, (E)-3-(6-aminopyridin-3-yl)-N-((5-(5-(4,4-difluoropiperidine-1-carbonyl)pyridin-2-yl)-7-(methoxy-d3)benzofuran-2-yl)methyl)acrylamide] |  |  |  | > 10 | < 0.1 | < 0.1 |
| Nc1ccc(/C=C/C(=O)NCc2cc3cc(-c4ccc(C(=O)N5CCC(F)(F)CC5)cn4)cc(C(F)(F)F)c3o2)cc1F [Compound 676, (E)-3-(4-amino-3-fluorophenyl)-N-((5-(5-(4,4-difluoropiperidine-1-carbonyl)pyridin-2-yl)-7-(trifluoromethyl)benzofuran-2-yl)methyl)acrylamide] |  |  |  | > 10 | > 10 | > 10 |
| COc1cc(-c2ncc(C(=O)N3CCOCC3)cn2)cc2cc(CNC(=O)/C=C/c3ccc(N)nc3)oc12 [Compound 638, (E)-3-(6-aminopyridin-3-yl)-N-((7-methoxy-5-(5-(morpholine-4-carbonyl)pyrimidin-2-yl)benzofuran-2-yl)methyl)acrylamide] | > 10 | < 0.1 | 0.1 to 5 |  |  |  |
| Nc1ccc(/C=C/C(=O)NCc2cc3cc(-c4ccc(F)c(S(=O)(=O)N5CCOCC5)c4)cc(Cl)c3o2)cn1 [Compound 636, (E)-3-(6-aminopyridin-3-yl)-N-((7-chloro-5-(4-fluoro-3-(morpholinosulfonyl)phenyl)benzofuran-2-yl)methyl)acrylamide] | > 10 | 0.1 to 5 | 0.1 to 5 |  |  |  |
| CC1(C)COCCN1C(=O)c1ccc(-c2cc(C(F)(F)F)c3oc(CNC(=O)/C=C/c4ccc(N)nc4)cc3c2)nc1 [Compound 569, (E)-3-(6-aminopyridin-3-yl)-N-((5-(5-(3,3-dimethylmorpholine-4-carbonyl)pyridin-2-yl)-7-(trifluoromethyl)benzofuran-2-yl)methyl)acrylamide] | > 10 | < 0.1 | < 0.1 |  |  |  |
| Nc1ccc(/C=C/C(=O)NCc2cc3cc(-c4ccc(C(=O)N5CCC(F)(F)CC5)cc4)cc(-c4ccc(F)nc4)c3o2)cn1 [Compound 735, (E)-3-(6-aminopyridin-3-yl)-N-((5-(4-(4,4-difluoropiperidine-1-carbonyl)phenyl)-7-(6-fluoropyridin-3-yl)benzofuran-2-yl)methyl)acrylamide] |  |  |  | 0.1 to 5 | < 0.1 | < 0.1 |
| Nc1ccc(/C=C/C(=O)NCc2cc3cc(-c4ccc(Oc5ccc(F)cc5)cn4)cc(-c4ccc(F)cc4)c3o2)cn1 [Compound 745, (E)-3-(6-aminopyridin-3-yl)-N-((5-(5-(4-fluorophenoxy)pyridin-2-yl)-7-(4-fluorophenyl)benzofuran-2-yl)methyl)acrylamide] |  |  |  | > 10 | 0.1 to 5 | 0.1 to 5 |
| Nc1ccc(/C=C/C(=O)NCc2cc3cc(-c4ccc(S(=O)(=O)N5CC(F)(F)C5)cc4)cc(Cl)c3o2)cn1 [Compound 642, (E)-3-(6-aminopyridin-3-yl)-N-((7-chloro-5-(4-(3,3-difluoroazetidin-1-ylsulfonyl)phenyl)benzofuran-2-yl)methyl)acrylamide] | > 10 | 0.1 to 5 | 0.1 to 5 |  |  |  |
| Nc1ccc(/C=C/C(=O)NCc2cc3cc(-c4ccc(C(=S)N5CCC(F)(F)CC5)cn4)cc(-c4ccncc4)c3o2)cn1 [Compound 707, (E)-3-(6-aminopyridin-3-yl)-N-((5-(5-(4,4-difluoropiperidine-1-carbonothioyl)pyridin-2-yl)-7-(pyridin-4-yl)benzofuran-2-yl)methyl)acrylamide] |  |  |  | 0.1 to 5 | < 0.1 | < 0.1 |
| Nc1ccc(/C=C/C(=O)NCc2cc3cc(-c4ccc(C(=O)N5CCC(F)(F)CC5)cc4F)cc(-c4ccc(F)cc4)c3o2)cn1 [Compound 751, (E)-3-(6-aminopyridin-3-yl)-N-((5-(4-(4,4-difluoropiperidine-1-carbonyl)-2-fluorophenyl)-7-(4-fluorophenyl)benzofuran-2-yl)methyl)acrylamide] |  |  |  | 0.1 to 5 | < 0.1 | < 0.1 |
